Test results taken from US20260248761A1, “COMPOSITIONS AND METHODS FOR TREATMENT OF PULMONARY HYPERTENSION” (EpicentRx, Inc., priority 2022, published 2026).
Where “and” joins values, the source holds several entries; their conditions need not be identical. Identical values can stand only once. Like-named read-outs stand apart in the source and are kept apart here.

Key:
male Wistar rats [1] = experiment: Mean pulmonary artery pressure (mPAP) by catheter, intermittent hypoxia PAH study; format: in vivo, rat; conditions: FIG. 1A, intermittent hypoxia FiO2 10%, RRx-001 5 mg/kg or Bosentan 50 mg/kg mixed with blood, tail injection; for mPAP, lower value of group distribution: PAH group 27, control 16; for mPAP, median value of group distribution: PAH group 30, control 17, RRx-001 p<0.05 vs PAH; for mPAP, upper value of group distribution: PAH group 33, control 20
Method: (§1) The study exposed 18 male Wistar rats to an isobaric chamber with intermittent hypoxia where the fraction of inspired oxygen (FiO2) is 10%.
The mPAP was recorded in FIG. 1A using a catheter introduced into the right jugular vein of the male Wistar rats and passed across the tricuspid valve and a right ventricle into the pulmonary artery. A distribution of the mPAP results for the various groups is plotted in FIG. 1A.

male Wistar rats [2] = experiment: Mean aortic pressure (mAP) by arterial catheter, intermittent hypoxia PAH study; format: in vivo, rat; conditions: FIG. 1B, RRx-001 5 mg/kg or Bosentan 50 mg/kg mixed with blood; for mAP, lower value of group distribution: PAH group 117, control 98; for mAP, median value of group distribution: PAH group 137, control 113, RRx-001 p<0.05 vs PAH; for mAP, upper value of group distribution: PAH group 147, control 116
Method: as §1
The second graph, FIG. 1B, is a distribution of mean aortic pressure (mAP) that was recorded by an arterial catheter inserted via the carotid artery of the male Wistar rats. The PAH group distribution has an upper value for mAP of approximately 147 mmHg, a median value for the mAP of approximately 137 mmHg, and a lower value for the mAP of approximately 117 mmHg. The RRx-001 group has an upper value for the mAP of approximately 134 mmHg, a median value for the mAP of approximately 121 mmHg, and a lower value for the mAP of approximately 116 mmHg. The p value as determined for the mAP results between the PAH group and the RRx-001 group is less than 0.05.

male Wistar rats [3] = experiment: Wet weight ratio (Fulton index) RV/(LV+SP), right ventricular hypertrophy, hypoxia PAH study; format: in vivo, rat; conditions: FIG. 2, RRx-001 5 mg/kg or Bosentan 50 mg/kg mixed with blood; for wet weight ratio RV/(LV+SP), lower value: PAH group 0.38, control 0.28; for wet weight ratio RV/(LV+SP), median value: PAH group 0.43, control 0.31; for wet weight ratio RV/(LV+SP), upper value: PAH group 0.44, control 0.33
Excerpt: A distribution of the collected data is plotted on the graph for the 4 groups of male Wistar rats: the control group, the PAH group, the RRx-001 group, and the Bosentan group. The calculated wet weight ratio is intended to be an indicator of right ventricular hypertrophy.
To measure the wet weight ratio, the heart was excised, the atria were removed, and the wall of the right ventrical (RV) was separated from the heart. Tissues were blotted and weighed. […] The elevated pulmonary arterial pressure was paralleled by an increase in systolic pressure, and right ventricular hypertrophy according to the Fulton index.

male Wistar rats [4] = experiment: Lung morphological changes: relative medial wall thickness and area, hypoxia PAH study; format: in vivo, rat; conditions: RRx-001 5 mg/kg or Bosentan 50 mg/kg mixed with blood; for medial wall thickness relative to external diameter, lower value / medial wall thickness relative to external diameter, median value / medial wall thickness relative to external diameter, upper value: FIG. 4A; for medial wall thickness relative to external diameter, lower value: PAH group 0.13, control 0.07; for medial wall thickness relative to external diameter, median value: PAH group 0.14, control 0.07; for medial wall thickness relative to external diameter, upper value: PAH group 0.15, control 0.08; for medial wall area relative to lumen area, lower value / medial wall area relative to lumen area, median value / medial wall area relative to lumen area, upper value: FIG. 4B; for medial wall area relative to lumen area, lower value: PAH group 0.16, control 0.11; for medial wall area relative to lumen area, median value: PAH group 0.17, control 0.12; for medial wall area relative to lumen area, upper value: PAH group 0.21, control 0.14
Method: To collect the data, male Wistar rats lungs were removed and fixed in paraformaldehyde, then dehydrated and embedded in paraffin for sectioning. The relative medial thickness and relative medial areas were calculated from vessels showing a clearly defined external and internal elastic lamina.

male Wistar rats [5] = experiment: Echocardiograph: ejection fraction and fractional shortening, hypoxia PAH study; conditions: RRx-001 5 mg/kg or Bosentan 50 mg/kg mixed with blood; for ejection fraction, lower value / ejection fraction, median value / ejection fraction, upper value: FIG. 3A; for ejection fraction, lower value: PAH group 49%, control 65%; for ejection fraction, median value: PAH group 51%, control 68%; for ejection fraction, median value / fractional shortening, median value: RRx-001 p<0.05 vs PAH; for ejection fraction, upper value: PAH group 59%, control 72%; for fractional shortening, median value / fractional shortening, upper value: FIG. 3B; for fractional shortening, median value: PAH group 31%, control 42%; for fractional shortening, upper value: PAH group 33%, control 44%
Method: The male Wistar rats exposed to hypoxia were then divided into 3 groups for the study. A first group of 6 male Wistar rats were untreated and labeled “PAH”. A second group of 6 male Wistar rats were treated with the RRx-001. A third group of 6 male Wistar rats were treated with Bosentan, which is a drug that is used to treat PAH.
Treatment for the second group of male Wistar rats comprised mixing 5 mg/kg RRx-001 with blood and administering the mixture via tail injection before the hypoxia exposure. Similarly, treatment for the third group of male Wistar rats comprised mixing 50 mg/kg Bosentan with blood and administering the mixture daily via tail injection before the hypoxia exposure.

male Wistar rats [6] = experiment: H&E staining of the pulmonary arteriole (pulmonary vascular remodeling); format: in vivo, rat; conditions: FIG. 10, hypoxia induced PAH rats
Excerpt: FIG. 10 depicts the effect of the RRx-001 and Bosentan on pulmonary vascular remodeling. Specifically, FIG. 10 depicts images showing H&E staining in the pulmonary arteriole.

male Wistar rats [7] = format: in vivo, rat; conditions: FIG. 5A, hypoxia 1 week
Method: (§2) Male Wistar rats were kept in an isobaric hypoxic chamber with intermittent hypoxia (FiO2=10%) for (1) week (6 hours/day, 6 day/week). […] For administration, the RRx-001 (10 mg/kg) was mixed with blood and injected via the tail at the beginning of hypoxia exposure every day. […] Untreated control animals were not administered any agents and the SHAM (Control) group was not subjected to hypoxia.
Mean pulmonary pressure (mPAP) was recorded using a catheter introduced in the right jugular vein and passed across the tricuspid valve and right ventricle into the pulmonary artery.

male Wistar rats [8] = format: in vivo, rat
Method: as §2
Mean aortic pressure (mAP) was recorded by an arterial catheter inserted via the carotid artery.

male Wistar rats [9] = format: in vivo, rat; remark: listed apart in the source
Method: To measure the wet weight ratio, the heart was excised, the atria were removed, and the wall of the right ventrical (RV) was separated from the heart. Tissues were blotted and weighed.
as §2
The wet weight ratio is an indicator of right ventricle hypertrophy. The wet weight ratios were measured according to the same procedure as set out in the description for FIG. 2.

Wistar rats = conditions: FIG. 9, blood

SMILES | mPAP, lower value of group distribution (male Wistar rats [1]) | mPAP, median value of group distribution (male Wistar rats [1]) | mPAP, upper value of group distribution (male Wistar rats [1]) | mAP, lower value of group distribution (male Wistar rats [2]) | mAP, median value of group distribution (male Wistar rats [2]) | mAP, upper value of group distribution (male Wistar rats [2]) | wet weight ratio RV/(LV+SP), lower value (male Wistar rats [3]) | wet weight ratio RV/(LV+SP), median value (male Wistar rats [3]) | wet weight ratio RV/(LV+SP), upper value (male Wistar rats [3]) | medial wall thickness relative to external diameter, lower value (male Wistar rats [4]) | medial wall thickness relative to external diameter, median value (male Wistar rats [4]) | medial wall thickness relative to external diameter, upper value (male Wistar rats [4]) | medial wall area relative to lumen area, lower value (male Wistar rats [4]) | medial wall area relative to lumen area, median value (male Wistar rats [4]) | medial wall area relative to lumen area, upper value (male Wistar rats [4]) | ejection fraction, lower value (male Wistar rats [5]) | ejection fraction, median value (male Wistar rats [5]) | ejection fraction, upper value (male Wistar rats [5]) | fractional shortening, median value (male Wistar rats [5]) | fractional shortening, upper value (male Wistar rats [5]) | also measured
COc1ccccc1Oc1c(NS(=O)(=O)c2ccc(C(C)(C)C)cc2)nc(-c2ncccn2)nc1OCCO [Bosentan, reference compound] | approximately 21 mmHg | approximately 22 mmHg | approximately 24 mmHg | approximately 108 mmHg | approximately 120 mmHg | approximately 126 mmHg | approximately 0.32 | approximately 0.35 | approximately 0.39 | approximately 0.09 | approximately 0.10 | approximately 0.12 | approximately 0.14 | approximately 0.16 | approximately 0.17 | approximately 52% | approximately 59% | approximately 63% | approximately 38% | approximately 42% | –
O=C(CBr)N1CC([N+](=O)[O-])([N+](=O)[O-])C1 [RRx-001, 2-bromo-1-(3,3-dinitroazetidin-1-yl) ethan-1-one] | approximately 23 mmHg | approximately 26 mmHg | approximately 28 mmHg | approximately 116 mmHg | approximately 121 mmHg | approximately 134 mmHg | approximately 0.34 | approximately 0.35 | approximately 0.39 | approximately 0.07 | approximately 0.08 | approximately 0.09 | approximately 0.14 | approximately 0.14 | approximately 0.16 | approximately 60% | approximately 66% | approximately 69% | approximately 38% | approximately 39% | increases in pulmonary vascular wall thickness and muscularization of the pulmonary arteriole (male Wistar rats [6]): inhibited; median mPAP (male Wistar rats [7]; RRx-001 10 mg/kg + nitrite (NaNO2) 10 mg/kg s.c.): ~18 mmHg; median mPAP (male Wistar rats [7]; RRx-001 10 mg/kg + nitrite (NaNO2) 20 mg/kg s.c.): ~16 mmHg; median mPAP (male Wistar rats [7]; RRx-001 10 mg/kg + nitrite (NaNO2) 40 mg/kg s.c.): ~15 mmHg; median mPAP (male Wistar rats [7]; RRx-001 10 mg/kg mixed with blood daily, nitrite 0, saline/0 nitrite 23, control 20, SHAM 17): approximately 17 mmHg; median mAP (male Wistar rats [8]; FIG. 5B, hypoxia 1 week, RRx-001 10 mg/kg + nitrite 10 mg/kg s.c.): ~115 mmHg; median mAP (male Wistar rats [8]; FIG. 5B, hypoxia 1 week, RRx-001 10 mg/kg + nitrite 20 mg/kg s.c.): ~107 mmHg; median mAP (male Wistar rats [8]; FIG. 5B, hypoxia 1 week, RRx-001 10 mg/kg + nitrite 40 mg/kg s.c.): ~102 mmHg; median mAP (male Wistar rats [8]; FIG. 5B, hypoxia 1 week, RRx-001 10 mg/kg mixed with blood daily, nitrite 0, saline/0 nitrite 137, control 124, SHAM 109): approximately 116 mmHg; median wet weight ratio RV/(LV+SP) (male Wistar rats [9]; FIG. 7/8, hypoxia 1 week, RRx-001 10 mg/kg + nitrite 10 mg/kg): approximately 0.40 mg/mg; median wet weight ratio RV/(LV+SP) (male Wistar rats [9]; FIG. 7/8, hypoxia 1 week, RRx-001 10 mg/kg + nitrite 20 mg/kg): ~0.35 mg/mg; median wet weight ratio RV/(LV+SP) (male Wistar rats [9]; FIG. 7/8, hypoxia 1 week, RRx-001 10 mg/kg + nitrite 40 mg/kg): ~0.32 mg/mg; effect on right ventricle hypertrophy (wet weight ratio) (male Wistar rats [9]; FIG. 7/8, hypoxia study with nitrite, result in words): has an effect on right ventricle hypertrophy; median wet weight ratio RV/(LV+SP) (male Wistar rats [9]; rat, in vivo, 10 mg/kg): approximately 0.37 mg/mg; median metHb concentration (Wistar rats; RRx-001 10 mg/kg + nitrite 10 mg/kg): ~3%; median metHb concentration (Wistar rats; RRx-001 10 mg/kg + nitrite 20 mg/kg): ~7%; median metHb concentration (Wistar rats; RRx-001 10 mg/kg + nitrite 40 mg/kg): ~12%; median metHb concentration (Wistar rats; RRx-001 10 mg/kg, nitrite 0, saline/0 nitrite and controls 1%): approximately 1%
O=NO [nitrite, reference compound] | – | – | – | – | – | – | – | – | – | – | – | – | – | – | – | – | – | – | – | – | effect of nitrite on mAP versus mPAP (male Wistar rats [8]; rat, in vivo): systemic effect on mAP but less significant on mPAP; median mAP (male Wistar rats [8]; rat, in vivo): ~122 mmHg and ~126 mmHg and ~120 mmHg
